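Values below derive from 48-hour exposures of cells grown in 96-well plates, with endpoints linearly interpolated between the two concentrations bracketing the appropriate inhibition level. Abbreviation: GI50, concentration required for 50% inhibition of growth.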 The source made the active and inactive calls. Rule as the data show it: active = GI50 up to about 1.1 µM and inactive = higher.
How the values were obtained:
Assay in all cases: growth of human tumour cells (NCI), 48 h
[1] = system: HL-60
[2] = system: HOP-92
[3] = system: PC-3
[4] = system: HCT-15
[5] = system: MCF7
[6] = system: NCI-H226
[7] = system: MDA-MB-435
[8] = system: OVCAR-3
[9] = system: OVCAR-8
[10] = system: KM12
[11] = system: SK-MEL-2
[12] = system: MDA-N
[13] = system: IGROV-1
[14] = system: ACHN
[15] = system: HCC 2998
[16] = system: A549
[17] = system: K562
[18] = system: OVCAR-5
[19] = system: BT-549

SMILES	GI50 [1]	GI50 [2]	GI50 [3]	GI50 [4]	GI50 [5]	GI50 [6]	GI50 [7]	GI50 [8]	GI50 [9]	GI50 [10]	GI50 [11]	GI50 [12]	GI50 [13]	GI50 [14]	GI50 [15]	GI50 [16]	GI50 [17]	GI50 [18]	GI50 [19]
Oc1cc(-c2ccccc2Cl)nc2cc3c(cc12)OCO3	0.0207 µM (active)	0.102 µM (active)	0.0451 µM (active)	0.0371 µM	0.0518 µM (active)	0.13 µM (active)	0.0146 µM (active)	0.0608 µM (active)	0.198 µM (active)	0.0486 µM (active)	0.0719 µM (active)	0.0158 µM (active)	0.173 µM (active)	0.731 µM (active)	0.144 µM (active)	0.156 µM (active)	0.0399 µM (active)	1.09 µM (active)	
c1ccc2c(c1)[nH]c1c3ccccc3sc21	> 100 µM (inactive)	> 100 µM (inactive)	> 100 µM (inactive)	> 100 µM	24.9 µM (inactive)	> 100 µM (inactive)	99.1 µM (inactive)	> 100 µM (inactive)	> 100 µM (inactive)	> 100 µM (inactive)	> 100 µM (inactive)	> 100 µM (inactive)	> 100 µM (inactive)	> 100 µM (inactive)	> 100 µM (inactive)	77.4 µM (inactive)	> 100 µM (inactive)	> 100 µM (inactive)	
O=C(O)C1=C(O)C(C(=O)O)C23CCCCCCCCCCC12C(C(=O)O)C(O)=C3C(=O)O (configuration not stated)	> 100 µM (inactive)	> 100 µM (inactive)		> 100 µM		> 100 µM (inactive)		> 100 µM (inactive)	> 100 µM (inactive)	> 100 µM (inactive)	> 100 µM (inactive)		> 100 µM (inactive)	> 100 µM (inactive)	> 100 µM (inactive)	> 100 µM (inactive)	> 100 µM (inactive)	> 100 µM (inactive)	
COc1ccc(N2C(=O)C3c4[nH]c5ccc(C)cc5c4C4CCC(C(C)(C)C)CC4C3C2=O)cc1 (configuration not stated)	19.1 µM (inactive)		24.1 µM (inactive)	27.5 µM	33 µM (inactive)	21.1 µM (inactive)	24.9 µM (inactive)	10 µM (inactive)	6.21 µM (inactive)	32.8 µM (inactive)		> 10 µM (inactive)	38.9 µM (inactive)	7.64 µM (inactive)	41 µM (inactive)	6.9 µM (inactive)	13.4 µM (inactive)		20.7 µM (inactive)
NC(=S)N/N=C(\Cc1nc2ccc(Cl)cc2nc1O)C(=O)Nc1ccc(Cl)cc1	> 100 µM (inactive)	40.3 µM (inactive)	> 100 µM (inactive)	> 100 µM	> 100 µM (inactive)	96.2 µM (inactive)	> 100 µM (inactive)	> 100 µM (inactive)	> 100 µM (inactive)	> 100 µM (inactive)	> 100 µM (inactive)		> 100 µM (inactive)	> 100 µM (inactive)	> 100 µM (inactive)	> 100 µM (inactive)		> 100 µM (inactive)	> 100 µM (inactive)
Cc1ccc(/N=N/N(C)C(C)C(O)Cc2ccccc2)cc1 (configuration not stated)	33.8 µM (inactive)		20.3 µM (inactive)	41 µM	47.9 µM (inactive)	> 100 µM (inactive)	35.9 µM (inactive)	84.3 µM (inactive)	37.7 µM (inactive)	25.2 µM (inactive)	37.8 µM (inactive)	23.7 µM (inactive)	29.2 µM (inactive)	78.5 µM (inactive)	53.3 µM (inactive)	60.5 µM (inactive)	39.3 µM (inactive)	> 100 µM (inactive)	41 µM (inactive)
CN(C)CCNC(=O)c1cccc(CO)c1[N+](=O)[O-]	> 100 µM (inactive)		> 100 µM (inactive)	> 100 µM	> 100 µM (inactive)	> 100 µM (inactive)	> 100 µM (inactive)	> 100 µM (inactive)	> 100 µM (inactive)	> 100 µM (inactive)	> 100 µM (inactive)	> 100 µM (inactive)	> 100 µM (inactive)	> 100 µM (inactive)	> 100 µM (inactive)	> 100 µM (inactive)	> 100 µM (inactive)	> 100 µM (inactive)	> 100 µM (inactive)
Cc1cc2[nH]c3c(C#N)c(-c4ccccc4)c(/N=N/c4cccc(C(F)(F)F)c4)c(=O)n3c2cc1C			32.2 µM (inactive)	37 µM	50.4 µM (inactive)	25.2 µM (inactive)	38.8 µM (inactive)	8.55 µM (inactive)	26.1 µM (inactive)	31.6 µM (inactive)	58.1 µM (inactive)	28.3 µM (inactive)	21.8 µM (inactive)	37.5 µM (inactive)	59.2 µM (inactive)	25.3 µM (inactive)	0.0382 µM (active)	> 100 µM (inactive)	44.2 µM (inactive)
Cc1ccc(Nc2nc(=O)c3c4ccccc4n(C(=O)OC(C)(C)C)c3s2)cc1	24.8 µM (inactive)	23.1 µM (inactive)	29 µM (inactive)	22.3 µM			4.9 µM (inactive)	23.1 µM (inactive)	39.7 µM (inactive)	16.7 µM (inactive)	20.7 µM (inactive)		21.9 µM (inactive)	35.5 µM (inactive)		28.8 µM (inactive)	27.4 µM (inactive)	19.7 µM (inactive)	26.6 µM (inactive)
O=c1c2cc([N+](=O)[O-])ccc2[nH]n1Cc1ccccn1	> 100 µM (inactive)	> 100 µM (inactive)	> 100 µM (inactive)	> 100 µM		> 100 µM (inactive)	> 100 µM (inactive)	> 100 µM (inactive)	> 100 µM (inactive)	> 100 µM (inactive)		> 100 µM (inactive)	> 100 µM (inactive)	> 100 µM (inactive)	> 100 µM (inactive)	> 100 µM (inactive)	> 100 µM (inactive)	> 100 µM (inactive)	
Cc1ccc(S(=O)(=O)/N=C(\NN)Nc2ccc(Cl)cc2)cc1	> 100 µM (inactive)	> 100 µM (inactive)	> 100 µM (inactive)	> 100 µM	> 100 µM (inactive)	58.3 µM (inactive)		> 100 µM (inactive)	> 100 µM (inactive)	> 100 µM (inactive)	> 100 µM (inactive)	> 100 µM (inactive)	> 100 µM (inactive)	> 100 µM (inactive)		> 100 µM (inactive)	> 100 µM (inactive)	> 100 µM (inactive)	> 100 µM (inactive)
CC(=O)c1cccc(Nc2nc3ccccc3c3occc23)c1	> 100 µM (inactive)	9.64 µM (inactive)	31.3 µM (inactive)	36.4 µM	25.1 µM (inactive)	2.03 µM (inactive)	33.3 µM (inactive)	34.2 µM (inactive)	20.4 µM (inactive)	49.7 µM (inactive)				14.3 µM (inactive)	46.1 µM (inactive)	13.5 µM (inactive)	> 100 µM (inactive)	53.6 µM (inactive)	15.2 µM (inactive)
O=C(/C=C/c1cccs1)c1ccccc1Cl	5.81 µM (inactive)	25.5 µM (inactive)	15.4 µM (inactive)	10.6 µM	4.65 µM (inactive)	32.8 µM (inactive)	10.9 µM (inactive)	14.1 µM (inactive)	23.7 µM (inactive)	7.31 µM (inactive)	20.1 µM (inactive)	15.6 µM (inactive)	17.6 µM (inactive)	14.8 µM (inactive)	16.8 µM (inactive)	0.417 µM (active)	21.3 µM (inactive)	14.6 µM (inactive)	
CC1(C)CC(=O)C(CC2C(=O)c3ccccc3C2=O)C(=O)C1C(=O)C(=O)Nc1cccc2ccc(O)cc12 (configuration not stated)	> 100 µM (inactive)	70.3 µM (inactive)	51.4 µM (inactive)	59.3 µM	32.2 µM (inactive)	29 µM (inactive)	> 100 µM (inactive)	48.9 µM (inactive)	> 100 µM (inactive)	> 100 µM (inactive)	> 100 µM (inactive)		48.9 µM (inactive)	> 100 µM (inactive)	> 100 µM (inactive)	> 100 µM (inactive)	40.9 µM (inactive)	> 100 µM (inactive)	15 µM (inactive)
CCC1(CC)C(=O)NN(C(=O)c2ccc(Cl)cc2)C1=O	> 100 µM (inactive)		> 100 µM (inactive)	> 100 µM	> 100 µM (inactive)	> 100 µM (inactive)	> 100 µM (inactive)	> 100 µM (inactive)	> 100 µM (inactive)	> 100 µM (inactive)	> 100 µM (inactive)	> 100 µM (inactive)	> 100 µM (inactive)	> 100 µM (inactive)	> 100 µM (inactive)	> 100 µM (inactive)	> 100 µM (inactive)	> 100 µM (inactive)	> 100 µM (inactive)
O=C(O)C/C=C/CC(=O)O	> 100 µM (inactive)		> 100 µM (inactive)	> 100 µM	> 100 µM (inactive)	> 100 µM (inactive)	> 100 µM (inactive)	> 100 µM (inactive)	> 100 µM (inactive)	> 100 µM (inactive)	> 100 µM (inactive)	> 100 µM (inactive)	> 100 µM (inactive)	> 100 µM (inactive)	> 100 µM (inactive)	> 100 µM (inactive)	67.1 µM (inactive)	> 100 µM (inactive)	> 100 µM (inactive)
O=C1c2ccccc2-c2c1c(-c1ccc(O)cc1O)nc1ccc3ccccc3c21			> 100 µM (inactive)	> 100 µM	79.4 µM (inactive)	> 100 µM (inactive)	> 100 µM (inactive)		79.6 µM (inactive)	> 100 µM (inactive)	> 100 µM (inactive)	> 100 µM (inactive)		> 100 µM (inactive)	> 100 µM (inactive)	> 100 µM (inactive)	> 100 µM (inactive)	> 100 µM (inactive)	> 100 µM (inactive)
